PubChem BioAssay (NCI)
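Assay format: 96-well plates, 48-hour exposure. GI50 marks 50% less growth. TGI marks complete inhibition of growth.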

How the values were obtained:
Test in all cases: DTP human tumour cell line panel, 48 h
EKVX NSCLC = system: EKVX NSCLC
IGROV1 ovarian = system: IGROV1 ovarian
KM20L2 colon = system: KM20L2 colon
LXFL 529 NSCLC = system: LXFL 529 NSCLC
OVCAR-3 ovarian = system: OVCAR-3 ovarian
OVCAR-4 ovarian = system: OVCAR-4 ovarian
SK-MEL-2 melanoma = system: SK-MEL-2 melanoma
RPMI-8226 leukemia = system: RPMI-8226 leukemia
DU-145 prostate = system: DU-145 prostate
NCI/ADR-RES ovarian = system: NCI/ADR-RES ovarian

| SMILES | TGI (EKVX NSCLC) | TGI (IGROV1 ovarian) | TGI (KM20L2 colon) | TGI (LXFL 529 NSCLC) | TGI (OVCAR-3 ovarian) | TGI (OVCAR-4 ovarian) | TGI (SK-MEL-2 melanoma) | TGI (RPMI-8226 leukemia) | GI50 (EKVX NSCLC) | GI50 (IGROV1 ovarian) | GI50 (KM20L2 colon) | GI50 (LXFL 529 NSCLC) | GI50 (OVCAR-3 ovarian) | GI50 (OVCAR-4 ovarian) | GI50 (SK-MEL-2 melanoma) | GI50 (RPMI-8226 leukemia) | GI50 (DU-145 prostate) | TGI (DU-145 prostate) | GI50 (NCI/ADR-RES ovarian) | TGI (NCI/ADR-RES ovarian) |
| --- | --- | --- | --- | --- | --- | --- | --- | --- | --- | --- | --- | --- | --- | --- | --- | --- | --- | --- | --- | --- |
| COc1ccc2c(c1)[n+]([O-])c(-c1ccc([N+](=O)[O-])cc1)c(N)[n+]2[O-] | > 100 µM | > 100 µM | > 100 µM | > 100 µM | > 100 µM | > 100 µM | > 100 µM |  |  |  |  |  |  |  |  |  |  |  |  |  |
| CC(=O)Nc1ccc(/C=c2\sc3nnc(CCC(=O)Nc4ccccc4Cl)n3c2=O)cc1 | > 100 µM | > 100 µM |  | > 100 µM | 47.4 µM | 43 µM | 81.9 µM | 45.2 µM |  |  |  |  |  |  |  |  |  |  |  |  |
| Cc1ccc(S(=O)(=O)c2ccc(NC(=O)SCCC(=O)O)cc2)cc1 | > 100 µM | > 100 µM | > 100 µM | > 100 µM | > 100 µM | > 100 µM | > 100 µM | > 100 µM |  |  |  |  |  |  |  |  |  |  |  |  |
| COC(=O)C(Cc1nc2ccccc2[nH]c1=O)/C(=N\NC(C)(C)C)C(=O)Nc1c(C)cc(Br)cc1C (stereo not given) | > 100 µM | > 100 µM |  | 47.9 µM |  | > 100 µM | > 100 µM | > 100 µM |  |  |  |  |  |  |  |  |  |  |  |  |
| COc1ccccc1NC(=O)C1=C(C)NC(C)=C(C(=O)Nc2ccccc2OC)C1C1=CC=COC1 | > 100 µM | > 100 µM |  | 80 µM | 9.5 µM | > 100 µM |  | 50.1 µM |  |  |  |  |  |  |  |  |  |  |  |  |
| CCOC(=O)C1SC(=Nc2cccc(Cl)c2C)N=C1C (stereo not given) | > 10 µM | > 100 µM | 31.3 µM | > 10 µM | 42.5 µM | 89.5 µM | 37 µM | 69.9 µM |  |  |  |  |  |  |  |  |  |  |  |  |
| CN1C(=O)CCC2[C@@H]3CC=C4C[C@@H](O)CC[C@]4(C)C3CC[C@@]21C (stereo not given in full) | > 100 µM | > 100 µM | > 100 µM | > 100 µM | > 100 µM | > 100 µM | > 100 µM | > 100 µM |  |  |  |  |  |  |  |  |  |  |  |  |
| c1ccc([CH2][Sn]([CH2]c2ccccc2)([O]c2cccc3cccnc23)[O]c2cccc3cccnc23)cc1 | 1.99 µM | 1.23 µM | 2.07 µM | 1.2 µM | 0.949 µM | 0.374 µM | 1.77 µM |  | 741 nM | 0.403 µM | 0.793 µM | 0.32 µM | 300 nM | 0.184 µM | 511 nM |  |  |  |  |  |
| CCN(CC)CC(C)(C)C(=O)/C=C/c1cccc(/C=C/C(=O)C(C)(C)CN(CC)CC)c1 | 2.53 µM | 2.23 µM | 2.29 µM | 1.13 µM | 2.31 µM | 1.41 µM |  | > 100 µM |  |  |  |  |  |  |  |  |  |  |  |  |
| O=S(=O)([O-])c1ccc(N=Cc2ccccc2[O-])cc1.O=S(=O)([O-])c1ccc(N=Cc2ccccc2[O-])cc1.[O]=[U+2]=[O] | > 100 µM | > 100 µM | > 100 µM | > 100 µM | > 100 µM | > 100 µM | > 100 µM | > 100 µM | > 100000 nM | 83.8 µM | > 100 µM | > 100 µM | > 100000 nM | > 100 µM | > 100000 nM | > 100000 nM |  |  |  |  |
| C=CC(=O)NCCSCCCOC1(C(=O)O)CC(O)C(NC(C)=O)C(C(O)C(O)CO)O1 (stereo not given) |  | > 100 µM |  | > 100 µM | > 100 µM | > 100 µM | > 100 µM | > 100 µM |  |  |  |  |  |  |  |  |  |  |  |  |
| CC1=C(O)c2cn(C)cc2C(=O)C1=O | > 100 µM | > 100 µM | > 100 µM | > 100 µM | > 100 µM | > 100 µM | > 100 µM | > 100 µM |  |  |  |  |  |  |  |  |  |  |  |  |
| CN(C)c1ccc(/C=C/C(=O)[O-])cc1.CN(C)c1ccc(/C=C/C(=O)[O-])cc1.[Cu+2] | > 100 µM | > 100 µM | > 100 µM | > 100 µM | > 100 µM | > 100 µM | > 100 µM | > 100 µM |  |  |  |  |  | 14.9 µM |  |  |  |  |  |  |
| COC(=O)CCC(NC(=S)N/N=C/c1ccccn1)C(=O)OC (stereo not given) | > 100 µM | > 100 µM | > 100 µM | > 100 µM | > 100 µM | > 100 µM | > 100 µM | > 100 µM |  |  |  |  |  |  |  |  |  |  |  |  |
| O=C1/C(=N\O)c2ccccc2S1(=O)=O |  | > 100 µM | > 100 µM | > 100 µM |  | > 100 µM | > 100 µM | > 100 µM |  |  |  |  |  |  |  |  |  |  |  |  |
| C#CCNC(=O)N(CC#C)N=O | > 100 µM | > 100 µM | > 100 µM | > 100 µM | > 100 µM | > 100 µM | > 100 µM |  |  |  |  |  |  |  |  |  |  |  |  |  |
| N.N.NCCCCCN.O=C([O-])CCl.O=C([O-])CCl.O=C([O-])CCl.O=C([O-])CCl.[Pt+4].[Pt+4] | 58.2 µM | 67.3 µM | 32 µM | 91.2 µM | 49.2 µM | 48.3 µM | > 100 µM | > 100 µM | 17000 nM | 18 µM | 11.7 µM | 17.3 µM | 17000 nM | 10.2 µM | 35800 nM | 44900 nM |  |  |  |  |
| CCOC(=O)[C@@H](C)C[C@H](Cc1ccccc1)NC(=O)c1nc([C@@H](C[C@H](C(C)C)N(C)C(=O)[C@@H](NC(=O)[C@H]2CCCCN2C)C(C)C)OC(C)=O)sc1CCOCc1ccccc1 | > 11.1 µM | 2.81 µM |  |  |  | > 11.1 µM | 2.39 µM | 2.53 µM | 314 nM | 0.0995 µM |  |  | 39.6 nM | 0.222 µM | 63.9 nM | 107 nM | 40.4 nM | 1.08 µM | 503 nM | 3.98 µM |
| O=c1cc(-c2ccccc2)oc2ccc(OC/C(=N/O)c3ccccc3)cc12 | > 50 µM | > 50 µM |  |  | 3.93 µM | > 50 µM | > 50 µM | > 50 µM | 3820 nM | 7.62 µM |  |  | 1230 nM | 29 µM | 29600 nM | 1830 nM | 1730 nM | > 50 µM | 3300 nM | > 50 µM |
| COc1cccc(CCC2CCCN(c3cc(C)nc(N)n3)C2)c1 (stereo not given) | 27.7 µM | 12.8 µM |  |  | 0.675 µM | 19.3 µM | 8.23 µM | 3.13 µM | 558 nM | 0.666 µM |  |  | 242 nM | 0.692 µM | 435 nM | 348 nM | 326 nM | 11.2 µM | 394 nM | 5.9 µM |
| Nc1c(-c2cn(Cc3ccccc3)c3ccccc23)[n+]([O-])c2ccccc2[n+]1[O-] | > 100 µM | > 100 µM | > 100 µM | > 100 µM | 68.4 µM | > 100 µM | 57 µM | > 100 µM |  |  |  |  |  |  |  |  |  |  |  |  |
| CC1=Nc2ccccc2NC(c2ccoc2)C1 (stereo not given) | > 100 µM | > 100 µM | > 100 µM | > 100 µM | > 100 µM | > 100 µM | > 100 µM | > 100 µM |  |  |  |  |  |  |  |  |  |  |  |  |
